US7384959B2, “Treatment of convulsive states” (priority 1999, dated 2008)
Marks after values point to notes of the source that are not given here.

Test system: rat
Assay: Pentylenetetrazole (PTZ) Seizure Test
Assay type: in vivo
Conditions: for NUMBER OF CLONIC CONVULSIONS number of rats / NUMBER OF DEATHS number of rats / NUMBER OF TONIC CONVULSIONS number of rats: 10 rats per group; for NUMBER OF CLONIC CONVULSIONS number of rats / NUMBER OF DEATHS number of rats / NUMBER OF TONIC CONVULSIONS number of rats / NUMBER OF CLONIC CONVULSIONS % antagonism / NUMBER OF DEATHS % antagonism / NUMBER OF TONIC CONVULSIONS % antagonism: observed during 60 minutes; for LATENCY TO CLONIC CONVULSIONS % change from control / LATENCY TO CLONIC CONVULSIONS mean ± s.e.m. / LATENCY TO DEATHS % change from control / LATENCY TO DEATHS mean ± sem. / LATENCY TO TONIC CONVULSIONS % change from control / LATENCY TO TONIC CONVULSIONS mean ± sem.: rat; for anticonvulsant activity in the PTZ Seizure Test: animal model, delivered subcutaneously
Source text: The following Tables report the results of the Irwin, PTZ and barbital interaction (sleep induction) tests. Description of these tests may be found in Psychopharmacologica, 13:222-257 (1968), Krall et al, Epilepsia 19:409-428 (1978), and Simon et al, J. Pharmacol, Paris 13:241-252 (1982). See also Roux et al, Phoenix international Pharmacology Reports Nos. D30.2061/2 and D99.021/2.
Table 2a reports mean results based on animals showing the symptoms (minimum=3 animals). Table 2b reports results observed during 60 minutes. In these Tables: Student's t Test: NS=Not Significant; *=p<0.05; ** p<0.01; ***=p<0.001 Fisher's Exact Test: No indication=Not Significant; **=p<0.01; ***=p<0.001

SMILES: COC(=O)[C@@H](c1ccccc1)[C@@H]1CCCCN1 [l-MPH, l-threo-Methylphenidate]
- NUMBER OF CLONIC CONVULSIONS number of rats (8 mg/kg s.c. −30 min): 10
- NUMBER OF DEATHS number of rats (8 mg/kg s.c. −30 min): 10
- NUMBER OF TONIC CONVULSIONS number of rats (8 mg/kg s.c. −30 min): 10
- NUMBER OF CLONIC CONVULSIONS % antagonism (8 mg/kg s.c. −30 min): 0%
- NUMBER OF DEATHS % antagonism (8 mg/kg s.c. −30 min): 0%
- NUMBER OF TONIC CONVULSIONS % antagonism (8 mg/kg s.c. −30 min): 0%
- LATENCY TO CLONIC CONVULSIONS % change from control (8 mg/kg s.c. −30 min): +38%
- LATENCY TO CLONIC CONVULSIONS mean ± s.e.m. (8 mg/kg s.c. −30 min): 756.0 ± 105.0 NS sec
- LATENCY TO DEATHS % change from control (8 mg/kg s.c. −30 min): +20%
- LATENCY TO DEATHS mean ± sem. (8 mg/kg s.c. −30 min): 1566.1 ± 199.9 NS sec
- LATENCY TO TONIC CONVULSIONS % change from control (8 mg/kg s.c. −30 min): +23%
- LATENCY TO TONIC CONVULSIONS mean ± sem. (8 mg/kg s.c. −30 min): 1443.0 ± 198.2 NS sec
- NUMBER OF CLONIC CONVULSIONS number of rats (16 mg/kg s.c. −30 min): 9
- NUMBER OF DEATHS number of rats (16 mg/kg s.c. −30 min): 7
- NUMBER OF TONIC CONVULSIONS number of rats (16 mg/kg s.c. −30 min): 8
- NUMBER OF CLONIC CONVULSIONS % antagonism (16 mg/kg s.c. −30 min): 10%
- NUMBER OF DEATHS % antagonism (16 mg/kg s.c. −30 min): 30%
- NUMBER OF TONIC CONVULSIONS % antagonism (16 mg/kg s.c. −30 min): 20%
- LATENCY TO CLONIC CONVULSIONS % change from control (16 mg/kg s.c. −30 min): +99%
- LATENCY TO CLONIC CONVULSIONS mean ± s.e.m. (16 mg/kg s.c. −30 min): 1086.7 ± 213.6* sec
- LATENCY TO DEATHS % change from control (16 mg/kg s.c. −30 min): +35%
- LATENCY TO DEATHS mean ± sem. (16 mg/kg s.c. −30 min): 1757.1 ± 209.8* sec
- LATENCY TO TONIC CONVULSIONS % change from control (16 mg/kg s.c. −30 min): +53%
- LATENCY TO TONIC CONVULSIONS mean ± sem. (16 mg/kg s.c. −30 min): 1785.0 ± 292.2* sec
- NUMBER OF CLONIC CONVULSIONS number of rats (32 mg/kg s.c. −30 min): 10
- NUMBER OF DEATHS number of rats (32 mg/kg s.c. −30 min): 3++
- NUMBER OF TONIC CONVULSIONS number of rats (32 mg/kg s.c. −30 min): 3++
- NUMBER OF CLONIC CONVULSIONS % antagonism (32 mg/kg s.c. −30 min): 0%
- NUMBER OF DEATHS % antagonism (32 mg/kg s.c. −30 min): 70%
- NUMBER OF TONIC CONVULSIONS % antagonism (32 mg/kg s.c. −30 min): 70%
- LATENCY TO CLONIC CONVULSIONS % change from control (32 mg/kg s.c. −30 min): +226%
- LATENCY TO CLONIC CONVULSIONS mean ± s.e.m. (32 mg/kg s.c. −30 min): 1782.0 ± 161.7*** sec
- LATENCY TO DEATHS % change from control (32 mg/kg s.c. −30 min): +150%
- LATENCY TO DEATHS mean ± sem. (32 mg/kg s.c. −30 min): 3260.0 ± 121.7*** sec
- LATENCY TO TONIC CONVULSIONS % change from control (32 mg/kg s.c. −30 min): +162%
- LATENCY TO TONIC CONVULSIONS mean ± sem. (32 mg/kg s.c. −30 min): 3070.0 ± 164.6*** sec
- anticonvulsant activity in the PTZ Seizure Test: has anticonvulsant potential
- anticonvulsant activity in the PTZ Seizure Test (listed as l-enantiomer): possess anticonvulsant activity
